Here are results for twelve compounds from ChEMBL document CHEMBL1201862, “PubChem BioAssay data set” (2004).

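Method: 48-hour compound exposure of cells in 96-well plates, five concentrations, linear interpolation of endpoints. Abbreviation: GI50, concentration required for 50% inhibition of growth.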 Calls of active or inactive are those of the source. No stated cut-off is given here; in the data, active = GI50 up to about 1.1 µM and inactive = higher. Where only a bound is given, the exact number is not on record here.

Test systems include 786-0; A498; A549; BT-549; CAKI-1; CCRF-CEM; EKVX; HCT-116; MOLT-4; NCI/ADR-RES; OVCAR-4; OVCAR-5; OVCAR-8; PC-3; RXF 393; SF-268; U-251; UO-31; Hs-578T.
Holding throughout (experiment): DTP human tumour cell line panel, 48 h

Consider `Cc1sc2nc3n(c(=O)c2c1C)N=CN(c1ccc(Cl)cc1)C3`, for which the GI50 in the test with 786-0, in the test with A498, in the test with A549, in the test with BT-549, in the test on CAKI-1 and with CCRF-CEM was > 100 µM (inactive) in each case. For the same compound, the GI50 with EKVX, in the test on HCT-116, in the test on MOLT-4, in the test with NCI/ADR-RES, with OVCAR-4 and in the test with OVCAR-5 was > 100 µM (inactive) throughout. Further, the GI50 with OVCAR-8 is > 100 µM (inactive); in the test on PC-3, > 100 µM (inactive); in the test on RXF 393, > 100 µM (inactive); with SF-268, 39.4 µM (inactive); in the test on U-251, > 100 µM (inactive); with UO-31, > 100 µM (inactive).
As for `COc1cc(C2c3cc4c(cc3OC(O)C2C)OCO4)cc(OC)c1OC` (centres undefined), the 50% growth inhibitory concentration (GI50) in the test on 786-0 was 0.507 µM (active); in the test on A498 it was 0.483 µM (active); in the test on A549, 0.381 µM (active); in the test on BT-549, 1.14 µM (inactive); in the test with CAKI-1 it was 0.612 µM (active); with CCRF-CEM, 0.229 µM (active). The GI50 is 1.53 µM (inactive) in the test on EKVX; 0.349 µM (active) in the test with HCT-116; 0.31 µM (active) in the test with Hs-578T; 0.473 µM (active) in the test with MOLT-4; 0.214 µM (active) in the test with NCI/ADR-RES; 2.8 µM (inactive) with OVCAR-4. In addition, the GI50 in the test with OVCAR-5 was 4.78 µM (inactive); with OVCAR-8, 0.245 µM (active); in the test on PC-3, 0.228 µM (active); in the test on RXF 393, 0.244 µM (active); with SF-268 it was 1.51 µM (inactive); in the test on U-251, 0.33 µM (active). Further, the 50% growth inhibitory concentration (GI50) in the test with UO-31 is 0.695 µM (active).
Turning to `O=C1Nc2c(Cl)cc(Cl)cc2/C1=N/N=C/c1ccco1`, the GI50 in the test with 786-0 was 38.8 µM (inactive); with A498, 21.2 µM (inactive); in the test with A549 it was 33.4 µM (inactive); in the test on BT-549, 22.2 µM (inactive); in the test on CAKI-1 it was 24.3 µM (inactive); in the test on CCRF-CEM it was 29 µM (inactive). In addition, the GI50 in the test with EKVX was 7.6 µM (inactive); with HCT-116, 33 µM (inactive); in the test with Hs-578T it was 32.7 µM (inactive); with MOLT-4, 27.2 µM (inactive); in the test with NCI/ADR-RES, 21.4 µM (inactive); in the test with OVCAR-4 it was 49.3 µM (inactive). Besides, the GI50 in the test on OVCAR-5 was 61 µM (inactive); in the test on OVCAR-8 it was 22.8 µM (inactive); in the test on PC-3, 29.8 µM (inactive); with RXF 393 it was 32.1 µM (inactive); with U-251, 27.7 µM (inactive); with UO-31 it was 20.5 µM (inactive).
Take `Cc1ccccc1-n1c(C)nc2c1C(=O)c1ccccc1C2=O`: the GI50 in the test on 786-0 was 44.8 µM (inactive); with A498, > 100 µM (inactive); in the test on A549, 54.6 µM (inactive); in the test with CAKI-1, 42.7 µM (inactive); in the test on CCRF-CEM it was 50.2 µM (inactive); in the test with EKVX it was > 100 µM (inactive). Besides, the GI50 with HCT-116 was 35.1 µM (inactive); in the test with MOLT-4, 32 µM (inactive); in the test on OVCAR-4 it was 27.5 µM (inactive); with OVCAR-5, 72.3 µM (inactive); in the test with OVCAR-8, 47.9 µM (inactive); with RXF 393 it was > 100 µM (inactive). For the same compound, the GI50 with SF-268 was 67.5 µM (inactive); with U-251 it was 72.1 µM (inactive); with UO-31, 39.2 µM (inactive).
`O=C1CN2C(c3ccccc3)=NN(c3ccc([N+](=O)[O-])cc3)C2(c2ccccc2)c2cc(Cl)ccc2N1CC1CC1` (centres undefined): the GI50 in the test with 786-0, in the test with A498, with A549, in the test on BT-549, with CAKI-1 and in the test on CCRF-CEM was > 100 µM (inactive) in each case. For the same compound, the GI50 in the test with EKVX was > 100 µM (inactive); with HCT-116, > 100 µM (inactive); in the test on Hs-578T, > 100 µM (inactive); in the test on MOLT-4 it was 79.4 µM (inactive); in the test with NCI/ADR-RES, > 100 µM (inactive); in the test on OVCAR-4, > 100 µM (inactive). Besides, the GI50 in the test on OVCAR-5 was > 100 µM (inactive); in the test with OVCAR-8 it was > 100 µM (inactive); in the test on PC-3, 7.6 µM (inactive); in the test on RXF 393, > 100 µM (inactive); with SF-268, > 100 µM (inactive); in the test on U-251, > 100 µM (inactive). Besides, the GI50 in the test with UO-31 is > 100 µM (inactive).
Turning to `COC(=O)C1Cc2c([nH]c3ccccc23)C(c2ccccc2O)N1Cc1ccccc1` (centres undefined), the GI50 was 20.7 µM (inactive) in the test with 786-0; 28.9 µM (inactive) in the test on A498; 32 µM (inactive) in the test with A549; 22.2 µM (inactive) in the test with CAKI-1; > 46.5 µM (inactive) in the test on CCRF-CEM; > 31.6 µM (inactive) with EKVX. The GI50 in the test with HCT-116 was 23.3 µM (inactive); in the test with MOLT-4, 42.1 µM (inactive); in the test on OVCAR-4, 24.4 µM (inactive); with OVCAR-5, > 46.5 µM (inactive); in the test with OVCAR-8, 29.4 µM (inactive); in the test on RXF 393 it was 20.8 µM (inactive). Further, the GI50 in the test on SF-268 is 26.4 µM (inactive); with U-251, 20.6 µM (inactive); in the test on UO-31 it was 31 µM (inactive).
Take `CCOC(=O)c1cc2c(OCc3ccccc3)c(OC)cc3c2c(n1)N(c1ccc(OC)cc1)C(C)C3` (centres undefined): the GI50 in the test with 786-0 was > 50 µM (inactive); in the test with A498 it was > 50 µM (inactive); in the test on A549, > 50 µM (inactive); in the test on CAKI-1 it was 23.2 µM (inactive); in the test with CCRF-CEM it was > 50 µM (inactive); with EKVX, > 50 µM (inactive). The GI50 in the test on HCT-116 is > 50 µM (inactive); with MOLT-4 it was > 50 µM (inactive); with OVCAR-4, 10.4 µM (inactive); in the test on OVCAR-5, > 50 µM (inactive); with OVCAR-8, > 50 µM (inactive); with RXF 393 it was 33.6 µM (inactive). Besides, the figures for the GI50 in the test with SF-268, with U-251 and in the test on UO-31 were > 50 µM (inactive), 28.6 µM (inactive) and > 50 µM (inactive), respectively.
With `CC(=O)C1Cn2c(nc3ccccc32)C[Se]1` (centres undefined), the GI50 in the test on 786-0 was 3.32 µM (inactive); in the test on A498 it was 17.7 µM (inactive); with A549, 19.8 µM (inactive); in the test with CAKI-1, 2.19 µM (inactive); in the test on CCRF-CEM, 3.49 µM (inactive); in the test on EKVX, 15 µM (inactive). Also, the GI50 in the test on HCT-116 is 2.2 µM (inactive); with MOLT-4 it was 2.29 µM (inactive); in the test on OVCAR-4, 3.44 µM (inactive); in the test with OVCAR-5, 3.05 µM (inactive); with OVCAR-8, 4.09 µM (inactive); with RXF 393, 2.34 µM (inactive). The values for the GI50 in the test on SF-268, in the test on U-251 and in the test on UO-31 were 3.85 µM (inactive), 2 µM (inactive) and 3.1 µM (inactive), respectively.
Consider `CCC[C@H]1O[C@@H]2CC(=O)O[C@@H]2C2=C1C(=O)C=CC2=O`, for which the GI50 with 786-0 is 16.3 µM (inactive); in the test on A498, 34.2 µM (inactive); with A549, 32.6 µM (inactive); with CAKI-1, 19.2 µM (inactive); in the test on CCRF-CEM, 3.92 µM (inactive); with EKVX, > 44.1 µM (inactive). The GI50 in the test on HCT-116 was 18 µM (inactive); in the test with MOLT-4, 3.32 µM (inactive); with OVCAR-4, 16.3 µM (inactive); in the test with OVCAR-5 it was 19.7 µM (inactive); in the test with OVCAR-8, > 47.4 µM (inactive); with RXF 393, 16 µM (inactive). The GI50 was 12.9 µM (inactive) in the test with SF-268, > 39.4 µM (inactive) with U-251 and 18.5 µM (inactive) in the test with UO-31.
As to `COc1cc(OC(=O)c2c(O)cc(O)c(O)c2C)cc(C)c1C(=O)Oc1cc(C)c(C(=O)O)c(O)c1`, the GI50 in the test with 786-0, in the test on A498, in the test with A549, in the test with CAKI-1, in the test with CCRF-CEM and in the test with EKVX was > 100 µM (inactive) throughout. For the same compound, the GI50 with HCT-116, with MOLT-4, in the test on OVCAR-4, with OVCAR-5, in the test with OVCAR-8 and in the test on RXF 393 was > 100 µM (inactive) in each case. For the same compound, the GI50 in the test with SF-268, with U-251 and with UO-31 was > 100 µM (inactive) each time.
Take `COc1ccc(COCC(Cn2ccnc2)OCc2ccc(C(=O)O)cc2)cc1` (centres undefined): the GI50 in the test on 786-0, in the test with A498, in the test on A549, with CAKI-1, in the test with CCRF-CEM and with EKVX was > 100 µM (inactive) throughout. The GI50 with HCT-116, in the test on MOLT-4, in the test with OVCAR-4, in the test on OVCAR-5, in the test on OVCAR-8 and in the test on RXF 393 was > 100 µM (inactive) in each case. The GI50 in the test with SF-268, with U-251 and in the test with UO-31 was > 100 µM (inactive) in each case.
Take `O=C(O)c1cc(/C=C/c2cc(O)ccc2O)ccc1O`: the GI50 in the test on 786-0, in the test on A549, in the test with BT-549, in the test on CCRF-CEM, in the test with EKVX and in the test on Hs-578T was > 10 µM (inactive) throughout. Besides, the GI50 with MOLT-4, in the test on NCI/ADR-RES, in the test with OVCAR-4, in the test on OVCAR-5, with OVCAR-8 and in the test with PC-3 was > 10 µM (inactive) each time. The GI50 in the test on SF-268, in the test with U-251 and in the test with UO-31 was > 10 µM (inactive) throughout.

In general, GI50 refers to the concentration giving 50% growth inhibition.
